Data from publication PMC4084896 (PLoS ONE, 2014).
Where two headings read alike, the source gives them in different places.

What was measured:
[1] = molecular target: T1, aryl hydrocarbon receptor AhR (Homo sapiens, UniProt P35869); test: AhR gene reporter assay in AZ-AHR cells, antagonist mode (TCDD 5 nM); type: cell-based; conditions: 24 h, in the presence of TCDD 5 nM
T1 construct: endogenous in cells; host or cells: AZ-AHR (stably transfected reporter line derived from HepG2)
T1 sequence (P35869 11-848): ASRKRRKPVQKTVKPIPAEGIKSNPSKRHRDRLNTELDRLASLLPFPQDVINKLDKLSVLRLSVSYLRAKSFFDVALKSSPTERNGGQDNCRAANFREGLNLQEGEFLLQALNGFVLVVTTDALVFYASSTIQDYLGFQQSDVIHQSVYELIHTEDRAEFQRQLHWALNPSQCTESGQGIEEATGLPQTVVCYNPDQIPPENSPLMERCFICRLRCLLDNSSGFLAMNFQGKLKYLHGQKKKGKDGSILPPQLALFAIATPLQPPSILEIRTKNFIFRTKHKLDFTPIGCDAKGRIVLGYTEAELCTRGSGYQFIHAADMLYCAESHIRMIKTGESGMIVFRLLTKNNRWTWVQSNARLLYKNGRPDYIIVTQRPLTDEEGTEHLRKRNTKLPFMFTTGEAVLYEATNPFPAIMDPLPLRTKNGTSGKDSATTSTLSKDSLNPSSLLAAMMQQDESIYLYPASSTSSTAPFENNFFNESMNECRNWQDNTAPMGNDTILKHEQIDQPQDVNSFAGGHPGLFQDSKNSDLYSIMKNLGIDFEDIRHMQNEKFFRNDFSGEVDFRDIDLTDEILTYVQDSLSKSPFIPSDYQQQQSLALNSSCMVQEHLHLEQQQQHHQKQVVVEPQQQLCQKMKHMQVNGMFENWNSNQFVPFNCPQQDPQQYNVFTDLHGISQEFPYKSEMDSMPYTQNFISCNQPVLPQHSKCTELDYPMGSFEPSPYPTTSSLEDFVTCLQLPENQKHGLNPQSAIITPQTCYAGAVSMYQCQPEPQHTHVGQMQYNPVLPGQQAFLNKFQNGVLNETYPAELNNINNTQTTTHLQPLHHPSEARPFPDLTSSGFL
Excerpt: (§1) A stably transfected gene reporter cell line AZ-AHR, derived from human hepatoma HepG2 cells transfected with a construct containing several AhR binding sites upstream of a luciferase reporter gene, was used for assessment of AhR transcriptional activity. A stably transfected gene reporter cell line AZ-GR, derived from human cervix carcinoma HeLa cells transfected with a construct containing several GR response elements upstream of a luciferase reporter gene, was used for assessment of GR transcriptional activity. Cells were incubated for 24 h with tested compounds and/or vehicle (DMSO; 0.1% v/v), in the presence or absence of TCDD (5 nM; AZ-AHR cells) or DEX (100 nM; AZ-GR cells). After the treatments, cells were lysed and luciferase activity was measured. In parallel, cell viability was determined by conventional MTT test.
(§2) Gene reporter assays were performed in two different experimental layouts. In agonist mode, cells were treated with increasing concentrations of tested compounds, and the half-maximal effective concentrations (EC50) were calculated.

AZ-GR cells = test: MTT cytotoxicity test in AZ-GR cells; type: cell-based, human; conditions: 24 h incubation, read-out: AZ-GR viability - MTT IC50
Excerpt: as §1
(§3) There is multiple evidence for the role of glucocorticoid receptor (GR) in regulation of AhR activity. […] Gene reporter assays were performed in agonist and antagonist mode (similarly as described in section 3.1.).

[2] = molecular target: T1, aryl hydrocarbon receptor AhR; test: AhR gene reporter assay in AZ-AHR cells, agonist mode; type: cell-based; conditions: for EC50: 24 h, agonist mode
Excerpt: as §1, §2

[3] = molecular target: T2, glucocorticoid receptor (GR) (Homo sapiens, UniProt P04150); test: GR gene reporter assay in AZ-GR cells, agonist mode; type: cell-based; conditions: up to / at 100 µM, 24 h
T2 sequence (P04150 1-777): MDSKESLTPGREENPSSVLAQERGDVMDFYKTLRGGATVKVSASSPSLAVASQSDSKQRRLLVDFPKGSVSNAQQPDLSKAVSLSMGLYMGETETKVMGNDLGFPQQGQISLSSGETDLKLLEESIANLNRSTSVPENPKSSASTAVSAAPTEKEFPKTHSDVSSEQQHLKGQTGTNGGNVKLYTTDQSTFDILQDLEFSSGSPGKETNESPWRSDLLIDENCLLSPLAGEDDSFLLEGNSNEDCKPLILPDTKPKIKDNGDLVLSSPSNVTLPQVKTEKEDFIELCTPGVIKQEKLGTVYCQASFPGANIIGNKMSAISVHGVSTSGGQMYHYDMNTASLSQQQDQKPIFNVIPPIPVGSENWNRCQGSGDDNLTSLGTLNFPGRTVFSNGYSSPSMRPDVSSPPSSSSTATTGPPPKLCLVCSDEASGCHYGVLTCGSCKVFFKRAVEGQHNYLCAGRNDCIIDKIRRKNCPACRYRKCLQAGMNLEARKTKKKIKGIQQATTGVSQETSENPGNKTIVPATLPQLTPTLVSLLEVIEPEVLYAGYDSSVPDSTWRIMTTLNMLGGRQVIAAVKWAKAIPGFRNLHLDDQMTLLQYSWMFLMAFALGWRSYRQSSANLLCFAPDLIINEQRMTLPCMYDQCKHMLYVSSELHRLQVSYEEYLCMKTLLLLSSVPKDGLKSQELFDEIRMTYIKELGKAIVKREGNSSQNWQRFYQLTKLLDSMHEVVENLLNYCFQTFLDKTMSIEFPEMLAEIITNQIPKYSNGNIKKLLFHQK
Excerpt: as §1, §3

[4] = molecular target: T2, glucocorticoid receptor (GR); test: GR gene reporter assay in AZ-GR cells, antagonist mode (DEX 100 nM); type: cell-based; conditions: 24 h; for IC50: in the presence of DEX 100 nM
Excerpt: as §1, §3

[5] = test system: tyrosine aminotransferase (TAT) mRNA; test: TAT mRNA in HepG2 cells (qRT-PCR); type: cell-based, human; conditions: HepG2, 1, 30, 50 µM, 24 h

Row | Compound | IC50 [1] [µM] | IC50 (AZ-GR cells; Homo sapiens) [µM] | AZ-AHR gene reporter - agonist efficacy [2] | EC50 [2] [µM] | increase of luciferase activity, agonist mode [3] | inhibition of DEX-induced luciferase activity (in words) ([4]; DEX 100 nM) | IC50 [4] [µM] | TAT mRNA induction (in words) [5] | IC50 (AZ-GR cells) [µM] | AZ-AHR gene reporter - agonist efficacy ([2]; average value printed in Figure 1B, relative to TCDD)
1 | CC(=O)N1CCN(c2ccc(OCC3COC(Cn4ccnc4)(c4ccc(Cl)cc4Cl)O3)cc2)CC1 (racemic) [rac-KET, ketoconazole] | 31.1 ± 3.7 | > 100 | 15,4 ± 9,4% | 5.2 | approximately 5 fold | only weak inhibition | > 100 | strong, concentration-dependent induction | – | –
2 | CC(=O)N1CCN(c2ccc(OC[C@H]3CO[C@](Cn4ccnc4)(c4ccc(Cl)cc4Cl)O3)cc2)CC1 [(+)-KET, (2R,4S)-(+)-KET] | 22.3 ± 6.3 | – | – | 3.2 | did not induce luciferase activity | – | 29.6 ± 0.9 | strong, concentration-dependent induction | 82.6 ± 23.7 | 23,5 ± 12,2%
